Here are results for 1 compound from PMC9781916, “Antipsychotic- and Anxiolytic-like Properties of a Multimodal Compound JJGW08 in Rodents” (International Journal of Molecular Sciences, 2022).

The test system of data set [1] is rats. Kind of data set: Open field test after MK-801 administration in rats (MK-801-induced hyperlocomotion). Format: in vivo. The settings on record: doses 1–30 mg/kg ip, MK-801 0.3 mg/kg ip. The method, then: Figure 4 The effect of JJGW08 and clozapine on MK-801-induced hyperlocomotion in rats. After the habituation period (30 min, 24 h before the test), locomotor activity was measured individually for each animal in the special apparatus. The walked distance (cm) was monitored at 10-min intervals for 30 min, using a computerized system that tracked the animals’ movement and behavior. JJGW08 and clozapine were administered intraperitoneally (ip) 30 or 60 min before the test, respectively, while MK-801 (0.3 mg/kg) was administered ip 15 min before the start of the experiment. The control group received 0.9% NaCl solution (ip) (or 1% Tween (ip) for clozapine) and MK-801 (0.3 mg/kg, ip). Values are expressed as mean ± SD, n = 7–8 rats per group. Statistical analysis: one-way ANOVA (Newman–Keuls post hoc) * p < 0.05, ** p < 0.01, *** p < 0.001.
The experiment was evaluated according to the method described earlier. It was performed in a soundproof chamber with a 30-min habituation period 24 h before the procedure. The open field apparatus consisted of four black, octagonal, stainless steel arenas (diameter: 80 cm) with 30 cm high walls. Each arena was divided into a peripheral and central sector. The peripheral sector was defined as the region within 20 cm from the walls. The approximate light intensity was 15 lx in the central point of the arena and 4 lx close to its walls.
Individual rats were placed in the central part of the open field and allowed to explore the whole arena for 30 min under dim light (approximately 10 lx) and continuous white noise (65 dB). Forward locomotion (cm/30 min) was registered in 10-min intervals for 30 min and analyzed with the aid of a computerized video tracking system (Videomot, TSE, Bad Homburg, Germany). The arenas were cleaned between tests with 20% (v/v) alcohol and allowed to dry.
The tested compound was administered ip 30 min before the experiment at the dose range of 0.3–30.0 mg/kg, and MK-801 (0.3 mg/kg,) was administered ip 15 min before the procedure. […]

Data set [2] has as its system mice. Nature of the data set: Catalepsy bar test in mice. Format: in vivo.
Procedure: Catalepsy was assessed using the bar method described by Ueki et al. with minor modifications [48, 49]. The front paws of the mice were placed on a cylindrical metal bar located 4 cm above the tabletop’s surface, while the hind paws remained on the tabletop. The time in which the animal held both paws on the bar was measured at 30, 60, and 120 min after the administration of the tested compound, with a maximum measurement time of 60 s. Each of the measurements consisted of placing the animal’s paws on the bar three times unless the mouse was on it for 60 s; then, no further trial was performed.
The minimum cataleptogenic dose was defined as the lowest dose inducing a mean catalepsy score of ≥1 at 30, 60, or 120 min post-treatment. The tested compound was administered ip at the dose range of 5–20 mg/kg.
Data set [3] concerns 5-HT2A receptors. Details: method as in doi:10.1016/j.molstruc.2022.134585. The settings on record: cited from earlier work.
In data set [4] the test system is 5-HT1A receptors. Details: method as in doi:10.1016/j.molstruc.2022.134585. The settings on record: cited from earlier work.
Data set [5] addresses T1, human serotonin 5-HT1A receptor (Homo sapiens, UniProt P08908).
T1 construct: host or cells: CHO-K1
T1 sequence (P08908 1-422): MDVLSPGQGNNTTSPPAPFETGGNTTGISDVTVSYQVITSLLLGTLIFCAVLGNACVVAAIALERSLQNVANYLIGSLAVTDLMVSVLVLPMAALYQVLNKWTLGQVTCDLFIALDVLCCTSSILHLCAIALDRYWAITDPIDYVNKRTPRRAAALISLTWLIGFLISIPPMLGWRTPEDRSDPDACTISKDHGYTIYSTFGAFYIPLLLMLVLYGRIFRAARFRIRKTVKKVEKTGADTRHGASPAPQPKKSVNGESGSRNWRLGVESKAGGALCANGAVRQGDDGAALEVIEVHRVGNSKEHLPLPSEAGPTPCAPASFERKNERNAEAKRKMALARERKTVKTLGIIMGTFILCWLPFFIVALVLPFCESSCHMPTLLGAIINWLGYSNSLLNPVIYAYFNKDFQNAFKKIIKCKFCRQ
Kind of data set: Functional assay (aequorin, calcium mobilization) in CHO-K1 cells, 5-HT1A receptor. Format: cell-based. In general terms: Calcium assays in cells follow changes in intracellular calcium, usually with a dye or a luminescent sensor.
Procedure: (§1) Tested and reference compounds were dissolved in dimethyl sulfoxide (DMSO) at a concentration of 10 mM. Serial dilutions were prepared in a 96-well microplate in assay buffer, and 8 to 10 concentrations were tested. […] The assay was executed according to the previously described protocol [45]. After thawing, cells were transferred to assay buffer (DMEM/HAM’s F12 with 0.1% protease-free BSA) and centrifuged. The cell pellet was resuspended in assay buffer, and coelenterazine h was added at final concentrations of 5 µM. The cell suspension was incubated at 16 °C (or 21 °C), protected from light with constant agitation for 16 h (or 4 h), and then diluted with assay buffer to the concentration of 100,000 cells/mL (or 250,000 cells/mL). After 1 h of incubation, 50 µL of the cell’s suspension was dispensed using automatic injectors built into the radiometric and luminescence plate counter MicroBeta2 LumiJET (PerkinElmer, Waltham, NA, USA) into white opaque 96-well microplates preloaded with test compounds. Immediate light emission generated following calcium mobilization was recorded for 30 s. In antagonist mode, after 25–30 min of incubation, the reference agonist was added to the above assay mix, and light emission was re-recorded. […] IC50 and EC50 values were calculated.

Data set [6] relates to 5-HT7 receptors. The arrangement: method as in doi:10.1016/j.molstruc.2022.134585. The settings on record: cited from earlier work.
The subject of data set [7] is mice. Kind of data set: Amphetamine-induced hyperlocomotion test in mice. Format: in vivo. As to conditions: doses 0.3–2.5 mg/kg ip, amphetamine 2.5 mg/kg sc. The method, then:
Locomotor activity was recorded in actometers separately for each mouse. After 30 min of adaptation, the number of crossings of photo beams was measured during 60 min. […] MK-801 (0.2 mg/kg, ip) was administered 15 min before the experiment, while amphetamine (2.5 mg/kg) was administered subcutaneously (sc) 30 min before the experiment. […] Values are expressed as means ± SD, n = 8–10 mice per group. Statistical analysis: one-way ANOVA (Newman–Keuls post hoc), * p < 0.05, ** p < 0.01, *** p < 0.001.
The test was performed according to the method described by Carlsson et al.. The mobility of the animals was measured in actometers, i.e., in plastic Opto M3 cages (22 × 12 × 13 cm) connected to a computer with MultiDevice Software v.1.30 (Columbus Instruments, Columbus, OH, USA). The experimental cages were equipped with infrared sources on one side and sensors receiving the emitted rays on the other side of the cage. The crossing of each beam of infrared rays was classified as motor activity. The animals were placed individually in experimental cages immediately after administration of the tested compound, 30 min before the start of the test, to adapt to the new conditions and exclude the occurrence of hyperactivity caused by the change of the environment. Spontaneous locomotor activity was measured every 5 min for 60 min. Mice received two injections: of the tested compound or reference substance (30 min before the test, ip) and of amphetamine (2.5 mg/kg, 30 min before the test, sc) or MK-801 (0.2 mg/kg, 15 min before the test, ip). Control groups received an injection of saline and amphetamine or MK-801, or two injections of saline, respectively. Olanzapine was used as a reference compound.

Data set [8] addresses T2, human D2 receptor (Homo sapiens, UniProt P14416).
T2 construct: host or cells: CHO-K1
Nature of the data set: Functional assay (aequorin, calcium mobilization) in CHO-K1 cells, D2 receptor. Format: cell-based.
Procedure: as §1

Setting [9] is: antagonist mode, 100 nM serotonin as reference agonist.
Setting [10] is: D2, antagonist mode, 30 nM apomorphine as reference agonist.

T2 sequence (P14416 whole entry): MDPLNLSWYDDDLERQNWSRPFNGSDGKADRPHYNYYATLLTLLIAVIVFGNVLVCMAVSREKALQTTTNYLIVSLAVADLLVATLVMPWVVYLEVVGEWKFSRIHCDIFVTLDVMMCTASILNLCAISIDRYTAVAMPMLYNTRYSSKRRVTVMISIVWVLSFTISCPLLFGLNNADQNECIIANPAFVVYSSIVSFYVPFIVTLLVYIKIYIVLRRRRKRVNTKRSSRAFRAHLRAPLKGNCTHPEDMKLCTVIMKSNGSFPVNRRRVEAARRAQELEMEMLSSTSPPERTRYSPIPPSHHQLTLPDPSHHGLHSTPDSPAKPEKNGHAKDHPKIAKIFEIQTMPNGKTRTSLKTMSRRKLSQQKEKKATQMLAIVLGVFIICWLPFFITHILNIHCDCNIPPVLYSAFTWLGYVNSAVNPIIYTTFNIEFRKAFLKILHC

As a reminder, the Kb is the equilibrium dissociation constant of an antagonist, usually derived from a functional assay. Regarding `COc1ccccc1N1CCN(CCCCCOc2ccccc2C(N)=O)CC1.Cl` [JJGW08, 2-{5-[4-(2-metoksyfenylo)piperazin-1-ylo]pentoxy}benzamide hydrochloride], the “reduction of MK-801-induced hyperlocomotion in the open field” value in data set [1] is 36–82%. In addition, the “Mean Score (catalepsy)” value in data set [2] (5 mg/kg ip, 30 min) stood at 0.0; in data set [2] (5 mg/kg ip, 60 min), 0.2; in data set [2] (5 mg/kg ip, 120 min) it was 0.2; in data set [2] (10 mg/kg ip, 30 min), 0.7; in data set [2] (10 mg/kg ip, 60 min) it was 0.9; in data set [2] (10 mg/kg ip, 120 min), 1.4. The “Mean Score (catalepsy)” value in data set [2] (20 mg/kg ip, 30 min) came to 2.1; in data set [2] (20 mg/kg ip, 60 min) it was 2.1; in data set [2] (20 mg/kg ip, 120 min) it was 1.5. Further, the “cataleptogenic dose relative to the lowest antipsychotic-like dose” value in data set [2] (10 mg/kg vs. 0.15 mg/kg) turned out to be 67 fold. Also, the “minimum (lowest) cataleptogenic dose” value in data set [2] (ip, lowest dose with mean catalepsy score ≥1 at 30, 60 or 120 min) is 10 mg/kg. The “affinity (in words)” value in data set [3] is listed as “moderate affinity”; in data set [4], “high affinity”; in data set [6], “moderate affinity”. In addition, the “Agonist Mode Emax%” value in data set [5] (agonist mode) is 9%; in data set [8] (D2, agonist mode), 13%. The results for the “Antagonist Mode Emax%” value in data set [5] (setting [9]) and in data set [8] (setting [10]) were 1% and 0%, respectively. In addition, the figures for the “Antagonist Mode pIC50 ± Range” value in data set [5] (setting [9]) and in data set [8] (setting [10]) were 8.3 ± 0.1 and 7.9 ± 0.0, respectively. For the same compound, in data set [7], the “reduction of amphetamine-induced hyperlocomotion” value is on record as 52–82%. For the same compound, the Kb in data set [8] (D2, antagonist mode, Cheng equation) was determined as 2 nM. In data set [8] (D2 functional assay), the “antagonistic properties (in words)” value was “strong antagonistic properties”.
